{
  "source": "ChEMBL document CHEMBL4808191",
  "about": "“Design, synthesis and biological evaluation of novel deoxyvasicinone-indole as multi-target agents for Alzheimer's disease” (Bioorg Med Chem Lett, 2021)",
  "key": {"Acetylcholinesterase": {"molecular_target": "Acetylcholinesterase (Electrophorus electricus, UniProt O42275)", "sequence (O42275 whole entry)": "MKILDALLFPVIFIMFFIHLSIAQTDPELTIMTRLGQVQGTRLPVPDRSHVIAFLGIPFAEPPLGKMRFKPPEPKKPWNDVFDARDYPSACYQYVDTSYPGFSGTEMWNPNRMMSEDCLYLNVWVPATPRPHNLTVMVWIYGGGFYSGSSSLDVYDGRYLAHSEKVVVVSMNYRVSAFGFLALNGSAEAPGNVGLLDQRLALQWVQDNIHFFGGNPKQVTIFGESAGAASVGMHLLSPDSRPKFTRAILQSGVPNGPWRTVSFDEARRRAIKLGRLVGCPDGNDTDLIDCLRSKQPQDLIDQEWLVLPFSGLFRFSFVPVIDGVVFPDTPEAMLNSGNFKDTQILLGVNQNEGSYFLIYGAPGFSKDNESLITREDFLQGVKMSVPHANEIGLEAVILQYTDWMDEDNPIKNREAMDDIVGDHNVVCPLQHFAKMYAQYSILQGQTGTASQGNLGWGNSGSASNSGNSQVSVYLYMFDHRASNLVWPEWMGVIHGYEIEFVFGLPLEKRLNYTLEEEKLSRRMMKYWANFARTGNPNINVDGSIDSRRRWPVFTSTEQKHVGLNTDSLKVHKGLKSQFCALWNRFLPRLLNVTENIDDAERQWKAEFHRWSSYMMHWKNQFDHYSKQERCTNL", "experiment": "Inhibition of electric eel AChE by Ellman's method"}, "[1]": {"molecular_target": "Acetylcholinesterase (Homo sapiens) (UniProt P22303)", "sequence (P22303 whole entry)": "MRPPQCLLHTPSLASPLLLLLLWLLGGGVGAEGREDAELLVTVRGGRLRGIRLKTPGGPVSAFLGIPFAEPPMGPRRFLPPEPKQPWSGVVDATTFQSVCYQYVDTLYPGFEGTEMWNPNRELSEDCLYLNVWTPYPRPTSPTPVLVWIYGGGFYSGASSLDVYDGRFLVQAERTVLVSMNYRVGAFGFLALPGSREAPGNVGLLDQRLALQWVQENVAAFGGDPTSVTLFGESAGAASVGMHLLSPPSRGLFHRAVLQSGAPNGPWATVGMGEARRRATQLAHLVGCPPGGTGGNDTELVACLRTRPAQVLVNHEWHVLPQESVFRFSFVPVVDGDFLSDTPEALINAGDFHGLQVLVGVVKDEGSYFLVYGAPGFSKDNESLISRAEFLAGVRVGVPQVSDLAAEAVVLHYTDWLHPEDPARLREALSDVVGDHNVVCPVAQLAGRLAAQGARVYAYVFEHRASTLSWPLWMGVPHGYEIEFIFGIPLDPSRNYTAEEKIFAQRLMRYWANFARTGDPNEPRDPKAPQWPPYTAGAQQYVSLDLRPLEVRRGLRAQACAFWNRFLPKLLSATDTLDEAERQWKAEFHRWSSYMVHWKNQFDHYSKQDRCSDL", "experiment": "Inhibition of AChE (unknown origin)-induced amyloid beta(1 to 42) aggregation by thioflavin-T fluorescence assay", "conditions": "concentration not given here"}, "Cholinesterase": {"molecular_target": "Cholinesterase (Equus caballus, UniProt P81908)", "sequence (P81908 whole entry)": "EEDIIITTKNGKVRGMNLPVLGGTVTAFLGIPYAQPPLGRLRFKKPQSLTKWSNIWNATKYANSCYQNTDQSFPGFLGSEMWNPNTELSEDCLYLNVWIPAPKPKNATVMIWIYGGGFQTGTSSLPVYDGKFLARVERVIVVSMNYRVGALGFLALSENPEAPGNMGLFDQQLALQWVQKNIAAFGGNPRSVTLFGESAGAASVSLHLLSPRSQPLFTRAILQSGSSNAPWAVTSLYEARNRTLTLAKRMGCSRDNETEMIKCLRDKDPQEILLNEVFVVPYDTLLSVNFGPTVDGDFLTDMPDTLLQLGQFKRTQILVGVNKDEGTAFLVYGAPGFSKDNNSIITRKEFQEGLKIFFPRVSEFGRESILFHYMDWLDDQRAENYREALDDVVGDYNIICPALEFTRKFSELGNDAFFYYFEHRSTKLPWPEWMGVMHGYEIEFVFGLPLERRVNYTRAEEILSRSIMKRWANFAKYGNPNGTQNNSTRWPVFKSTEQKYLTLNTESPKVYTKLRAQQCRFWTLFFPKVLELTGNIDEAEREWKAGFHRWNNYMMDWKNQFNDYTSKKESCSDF", "description": "Inhibition of equine serum BuChE by Ellman's method"}, "[2]": {"molecular_target": "Amyloid-beta precursor protein (Homo sapiens, UniProt P05067)", "sequence (P05067 whole entry)": "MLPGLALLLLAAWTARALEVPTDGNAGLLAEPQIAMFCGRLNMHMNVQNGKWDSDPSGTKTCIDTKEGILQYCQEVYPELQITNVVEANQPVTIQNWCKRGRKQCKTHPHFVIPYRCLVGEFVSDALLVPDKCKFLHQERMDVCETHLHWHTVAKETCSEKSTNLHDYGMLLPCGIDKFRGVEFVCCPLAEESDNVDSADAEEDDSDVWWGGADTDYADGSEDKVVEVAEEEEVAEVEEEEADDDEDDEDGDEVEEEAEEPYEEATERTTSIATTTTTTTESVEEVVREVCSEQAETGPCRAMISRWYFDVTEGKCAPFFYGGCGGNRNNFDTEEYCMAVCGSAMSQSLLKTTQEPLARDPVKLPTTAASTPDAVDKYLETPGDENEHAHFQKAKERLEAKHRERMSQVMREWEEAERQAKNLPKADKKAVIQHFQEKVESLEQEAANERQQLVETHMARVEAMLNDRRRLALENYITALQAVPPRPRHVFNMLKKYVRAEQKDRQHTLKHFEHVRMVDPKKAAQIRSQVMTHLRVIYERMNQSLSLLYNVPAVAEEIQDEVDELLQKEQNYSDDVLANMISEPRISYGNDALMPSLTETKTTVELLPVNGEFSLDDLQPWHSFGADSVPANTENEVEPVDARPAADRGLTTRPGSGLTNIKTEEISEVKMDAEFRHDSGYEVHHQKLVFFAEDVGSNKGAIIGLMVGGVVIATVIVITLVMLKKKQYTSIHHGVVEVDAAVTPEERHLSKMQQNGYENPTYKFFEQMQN"}, "[3]": {"molecular_target": "Acetylcholinesterase (Homo sapiens) (UniProt P22303)", "experiment": "Mixed type inhibition of AChE (unknown origin) assessed as decrease in Vmax by Lineweaver-Burk plot analysis"}, "[4]": {"molecular_target": "Acetylcholinesterase (Homo sapiens) (UniProt P22303)", "experiment": "Mixed type inhibition of AChE (unknown origin) assessed as increase in Km by Lineweaver-Burk plot analysis"}, "PC-12": {"test_system": "PC-12", "experiment": "Cytotoxicity against rat PC12 cells assessed as effect on cell viability at <12.5 uM by CCK8 assay", "assay_type": "cell-based"}, "BV-2": {"test_system": "BV-2", "experiment": "Cytotoxicity against mouse BV-2 cells assessed as effect on cell viability at <12.5 uM by CCK8 assay", "assay_type": "cell-based"}},
  "note": "pIC50: −log10 of the molar value. Activity calls are given as the source filed them. No cut-off for these calls is given here.",
  "data": [
    {"smiles": "O=C(Nc1ccc2nc3n(c(=O)c2c1)CCC3)c1cc2cc(Cl)ccc2[nH]1", "values": [
      {"measurement": "pIC50", "setting": "Acetylcholinesterase", "value": 6.59},
      {"measurement": "inhibition", "setting": "[1]", "value": 52.1, "unit": "%"},
      {"measurement": "pIC50", "setting": "Cholinesterase", "value": 6.11},
      {"measurement": "pIC50", "setting": "[2]", "value": 5.77}
    ]},
    {"smiles": "O=C(Cc1cc2ccccc2[nH]1)Nc1ccc2nc3n(c(=O)c2c1)CCC3", "values": [
      {"measurement": "pIC50", "setting": "Acetylcholinesterase", "value": 6.01},
      {"measurement": "pIC50", "setting": "Cholinesterase", "value": 5.86},
      {"measurement": "pIC50", "setting": "[2]", "value": 5.79}
    ]},
    {"smiles": "O=C(Nc1ccc2nc3n(c(=O)c2c1)CCC3)c1cc2ccccc2[nH]1", "values": [
      {"measurement": "pIC50", "setting": "Acetylcholinesterase", "value": 5.81},
      {"measurement": "pIC50", "setting": "Cholinesterase", "value": 6.05},
      {"measurement": "pIC50", "setting": "[2]", "value": 5.67}
    ]},
    {"smiles": "Cc1cc2nc3n(c(=O)c2cc1NC(=O)c1cc2cc(Cl)ccc2[nH]1)CCC3", "values": [
      {"measurement": "pIC50", "setting": "Acetylcholinesterase", "value": 5.97},
      {"measurement": "pIC50", "setting": "Cholinesterase", "value": 5.33},
      {"measurement": "pIC50", "setting": "[2]", "value": 5.29}
    ]},
    {"smiles": "O=C(Nc1ccc2nc3n(c(=O)c2c1)CCC3)c1cc2cc(F)ccc2[nH]1", "values": [
      {"measurement": "pIC50", "setting": "Acetylcholinesterase", "value": 6.11},
      {"measurement": "inhibition", "setting": "[1]", "value": 61.8, "unit": "%"},
      {"measurement": "pIC50", "setting": "Cholinesterase", "value": 6.12},
      {"measurement": "pIC50", "setting": "[2]", "value": 5.81}
    ]},
    {"smiles": "COc1ccc2[nH]c(C(=O)Nc3cc4c(=O)n5c(nc4cc3C)CCC5)cc2c1", "values": [
      {"measurement": "pIC50", "setting": "Acetylcholinesterase", "value": 5.68},
      {"measurement": "pIC50", "setting": "Cholinesterase", "value": 5.28},
      {"measurement": "pIC50", "setting": "[2]", "value": 5.21}
    ]},
    {"smiles": "O=C(Nc1ccc2nc3n(c(=O)c2c1)CCC3)c1cc2ccccc2s1", "values": [
      {"measurement": "pIC50", "setting": "Acetylcholinesterase", "value": 5.60},
      {"measurement": "pIC50", "setting": "Cholinesterase", "value": 5.72},
      {"measurement": "pIC50", "setting": "[2]", "value": 5.64}
    ]},
    {"smiles": "O=C(CCCc1cc2ccccc2[nH]1)Nc1ccc2nc3n(c(=O)c2c1)CCC3", "values": [
      {"measurement": "pIC50", "setting": "Acetylcholinesterase", "value": 5.20},
      {"measurement": "pIC50", "setting": "Cholinesterase", "value": 5.80},
      {"measurement": "pIC50", "setting": "[2]", "value": 5.28}
    ]},
    {"smiles": "O=C(/C=C/c1cc2ccccc2[nH]1)Nc1ccc2nc3n(c(=O)c2c1)CCC3", "values": [
      {"measurement": "pIC50", "setting": "Acetylcholinesterase", "value": 5.78},
      {"measurement": "pIC50", "setting": "Cholinesterase", "value": 5.35},
      {"measurement": "pIC50", "setting": "[2]", "value": 5.51}
    ]},
    {"smiles": "COc1ccc2[nH]c(C(=O)Nc3ccc4nc5n(c(=O)c4c3)CCC5)cc2c1", "values": [
      {"measurement": "pIC50", "setting": "Acetylcholinesterase", "value": 6.92},
      {"measurement": "inhibition", "setting": "[1]", "value": 80, "unit": "%"},
      {"measurement": "inhibition", "setting": "[3]", "value": "Active"},
      {"measurement": "inhibition", "setting": "[4]", "value": "Active"},
      {"measurement": "Activity", "setting": "PC-12", "value": "Non-Toxic"},
      {"measurement": "Activity", "setting": "BV-2", "value": "Non-Toxic"},
      {"measurement": "pIC50", "setting": "Cholinesterase", "value": 6.82},
      {"measurement": "pIC50", "setting": "[2]", "value": 5.92}
    ]},
    {"smiles": "Cc1cc2nc3n(c(=O)c2cc1NC(=O)c1cc2cc(F)ccc2[nH]1)CCC3", "values": [
      {"measurement": "pIC50", "setting": "Acetylcholinesterase", "value": 5.87},
      {"measurement": "pIC50", "setting": "Cholinesterase", "value": 5.76},
      {"measurement": "pIC50", "setting": "[2]", "value": 5.49}
    ]},
    {"smiles": "O=C(Nc1ccc2nc3n(c(=O)c2c1)CCC3)c1cc2ccccc2o1", "values": [
      {"measurement": "pIC50", "setting": "Acetylcholinesterase", "value": 5.82},
      {"measurement": "pIC50", "setting": "Cholinesterase", "value": 5.73},
      {"measurement": "pIC50", "setting": "[2]", "value": 5.49}
    ]}
  ]
}
